The values below come from ChEMBL document CHEMBL5131572, “Identification of a Potent, Selective, and Brain-Penetrant Rho Kinase Inhibitor and its Activity in a Mouse Model of Huntington's Disease” (J Med Chem, 2022).

≈ marks a conversion by molar mass, not a printed value.

Series [1] in a line: Ratio of unbound AUC in C57BL/6 mouse brain at 10 mg/kg, po to IC50 for Inhibition of ROCK in rat A7r5 cells. The class given is organism-based. The conditions noted are these: in vivo.
Series [2] addresses Rho-associated protein kinase 2 (Homo sapiens, UniProt O75116). The experiment in a line: Inhibition of recombinant N-terminal GST-tagged human ROCK2 (5 to 554 residues) expressed in baculovirus infected Sf9 cells using S6K as substrate incubated for 30 mins in presence of ATP by ADP Glo kinase assay.
A short description of series [3]: Inhibition of ROCK in rat A7R5 cells assessed as cofilin serine 3 phosphorylation incubated for 1 hr by ICW assay. The conditions noted are these: A7R5, 1 h.
Series [4] in a line: Kinetic solubility of the compound in pH 7.4 PBS buffer incubated for 2 hrs using orbital shaker by LC-UV mass spectrometry. The conditions noted are these: read-out: Kinetic_solubility. Format: physicochemical.
The nature of series [5]: Apparent permeability in MDCK-MDR1 cells at 10 uM after 1 hr by LC-MS/MS analysis. The following applies: dog. The class given is ADME, cell-based, Canis lupus familiaris.
Series [6] can be described thus: Metabolic stability in mouse liver microsomes assessed as intrinsic clearance at 1 uM measured upto 40 mins in presence of NADPH by LC-MS/MS analysis. Format: ADME, Microsome. The following applies: read-out: CLH.
The target of series [7] is T1, cGMP-dependent protein kinase 1 (Homo sapiens, UniProt Q13976).
T1 sequence (Q13976 whole entry): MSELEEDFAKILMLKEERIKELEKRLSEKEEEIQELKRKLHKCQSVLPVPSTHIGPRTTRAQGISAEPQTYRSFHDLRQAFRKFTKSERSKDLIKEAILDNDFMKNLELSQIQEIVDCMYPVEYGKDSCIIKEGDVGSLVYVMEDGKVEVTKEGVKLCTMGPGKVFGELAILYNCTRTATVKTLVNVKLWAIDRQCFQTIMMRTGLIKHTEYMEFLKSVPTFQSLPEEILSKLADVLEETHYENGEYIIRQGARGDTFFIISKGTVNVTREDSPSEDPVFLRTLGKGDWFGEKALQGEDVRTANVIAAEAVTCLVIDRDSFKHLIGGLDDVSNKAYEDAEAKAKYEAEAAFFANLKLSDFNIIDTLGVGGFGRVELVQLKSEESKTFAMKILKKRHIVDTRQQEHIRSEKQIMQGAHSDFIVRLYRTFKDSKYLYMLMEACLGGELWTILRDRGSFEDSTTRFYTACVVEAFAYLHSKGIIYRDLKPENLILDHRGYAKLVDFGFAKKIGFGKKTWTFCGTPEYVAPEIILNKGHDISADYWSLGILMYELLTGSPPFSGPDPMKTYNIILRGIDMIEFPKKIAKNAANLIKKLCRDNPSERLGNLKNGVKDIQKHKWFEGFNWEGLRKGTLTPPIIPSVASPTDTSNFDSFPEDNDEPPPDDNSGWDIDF
In words: Inhibition of full length recombinant N-terminal GST-tagged human PKG expressed in baculovirus infected Sf9 insect cells using RSK as substrate preincubated for 15 mins followed by substrate addition and measured after 30 mins in presence of ATP by ADP Glo kinase assay.

Another series concerns the target T2, Cytochrome P450 1A2 (Homo sapiens, UniProt P05177).
T2 sequence (P05177 whole entry): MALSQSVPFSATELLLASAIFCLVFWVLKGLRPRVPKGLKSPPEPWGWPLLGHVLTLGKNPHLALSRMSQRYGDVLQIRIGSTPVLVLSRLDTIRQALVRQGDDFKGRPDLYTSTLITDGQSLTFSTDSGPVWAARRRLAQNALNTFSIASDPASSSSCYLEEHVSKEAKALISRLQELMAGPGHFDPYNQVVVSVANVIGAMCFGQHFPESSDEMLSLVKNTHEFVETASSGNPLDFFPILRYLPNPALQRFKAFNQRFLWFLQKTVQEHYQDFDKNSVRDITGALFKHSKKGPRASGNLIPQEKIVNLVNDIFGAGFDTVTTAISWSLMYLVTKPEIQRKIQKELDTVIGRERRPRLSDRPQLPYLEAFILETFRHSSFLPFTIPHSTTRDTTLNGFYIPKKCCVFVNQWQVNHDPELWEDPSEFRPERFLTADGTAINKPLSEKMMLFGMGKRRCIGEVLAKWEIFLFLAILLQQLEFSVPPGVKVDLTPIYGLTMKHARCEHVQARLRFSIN
In words: Time dependent inhibition of CYP1A2 in pooled human liver microsomes using […] as substrate preincubated for 30 mins in presence of NADPH followed by substrate addition and measured after 10 mins by LC-MS/MS analysis. Format: ADME, Microsome.

The nature of series [8]: Clearance in C57BL/6 mouse plasma at 2 mg/kg, iv. The class given is ADME, organism-based.
Series [9] in a line: Hepatic extraction ratio in C57BL/6 mouse at 2 mg/kg, iv. Format: ADME, organism-based. The conditions noted are these: in vivo, read-out: ERH.
Series [10] is described as follows: Unbound AUC in C57BL/6 mouse plasma at 10 mg/kg, po by LC-MS/MS analysis. The class given is ADME, organism-based. The following applies: in vivo.
Series [11] can be described thus: Unbound AUC in C57BL/6 mouse brain at 10 mg/kg, po by LC-MS/MS analysis. The following applies: in vivo. The class given is ADME, organism-based.
The nature of series [12]: Oral bioavailability in C57BL/6 mouse at 10 mg/kg. The following applies: in vivo. Format: ADME, organism-based.
The subject of a further series is MDR1. The experiment in a line: in vitro. The following applies: dog, MDCK-MDR1.
Series [13] deals with RAC-alpha serine/threonine-protein kinase (Homo sapiens, UniProt P31749). The experiment in a line: Inhibition of AKT (unknown origin).
The nature of series [14]: Inhibition of ROCK in rat A7R5 cells assessed as increase in AKT phosphorylation measured after 30 mins by alphaLISA Surefire multiplex assay. Format: cell-based. The following applies: A7R5, 0.5 h.
A short description of series [15]: Inhibition of ROCK in human PANC-1 cells assessed as decrease in MYPT1 phosphorylation at T850 residues measured after 1 hr by Western blot analysis. Format: cell-based. The following applies: PANC-1, 1 h.
Series [16] deals with Mus musculus. The experiment in a line: Antihypertensive activity in CD1 mouse assessed as decrease in mean arterial pressure at 10 to 20 mg/kg, po measured after 0.5 to 2 hrs. The conditions noted are these: dose 10-20 mg/kg, time 0.5-2 hrs. The class given is functional.
Series [17] concerns Mus musculus. In words: Antihypertensive activity in CD1 mouse assessed as decrease in systolic blood pressure at 10 to 20 mg/kg, po measured after 0.5 to 2 hrs. The following applies: dose 10-20 mg/kg, time 0.5-2 hrs. Format: functional.
For series [18], the system named is Mus musculus. The experiment in a line: Antihypertensive activity in CD1 mouse assessed as decrease in diastolic blood pressure at 10 to 20 mg/kg, po measured after 0.5 to 2 hrs. The class given is functional. The following applies: dose 10-20 mg/kg, time 0.5-2 hrs.
The next series has as its target LIM domain kinase 2 (Homo sapiens, UniProt P53671). In words: Inhibition of wild-type human full length LIMK2 (M1 to P638 residues) expressed in bacterial expression system by Kinomescan method.
Series [19] has as its system Mus musculus. In words: In vivo inhibition of ROCK in po dosed HTT zQ175DN Knock-in mouse assessed as reduction in MYPT1 phosphorylation in striatum after 1 hr by MSD assay. Format: functional, organism-based. The following applies: dose 1-20 mg/kg, DDE = dose-dependent effect.
Series [20] relates to Mus musculus. In words: In vivo inhibition of ROCK in HTT zQ175DN Knock-in mouse assessed as reduction in MYPT1 phosphorylation in striatum at 10 mg/kg, po by MSD assay. The conditions noted are these: time 1-8 hrs, TDE = time-dependent effect. Format: functional, organism-based.
Series [21] concerns Mus musculus. In words: Antihypertensive activity in CD1 mouse assessed as decrease in body temperature at 10 to 20 mg/kg, po measured after 0.5 to 4 hrs. Format: functional. The conditions noted are these: dose 10-20 mg/kg, time 0.5-4 hrs.
The test system of series [22] is Mus musculus. In words: Antihypertensive activity in CD1 mouse assessed as decrease in heart rate pressure at 10 to 20 mg/kg, po measured after 0.5 to 2 hrs. The conditions noted are these: dose 10-20 mg/kg, time 0.5-2 hrs.

Rho-associated protein kinase 2, sequence (O75116 whole entry, the tested form may be a part): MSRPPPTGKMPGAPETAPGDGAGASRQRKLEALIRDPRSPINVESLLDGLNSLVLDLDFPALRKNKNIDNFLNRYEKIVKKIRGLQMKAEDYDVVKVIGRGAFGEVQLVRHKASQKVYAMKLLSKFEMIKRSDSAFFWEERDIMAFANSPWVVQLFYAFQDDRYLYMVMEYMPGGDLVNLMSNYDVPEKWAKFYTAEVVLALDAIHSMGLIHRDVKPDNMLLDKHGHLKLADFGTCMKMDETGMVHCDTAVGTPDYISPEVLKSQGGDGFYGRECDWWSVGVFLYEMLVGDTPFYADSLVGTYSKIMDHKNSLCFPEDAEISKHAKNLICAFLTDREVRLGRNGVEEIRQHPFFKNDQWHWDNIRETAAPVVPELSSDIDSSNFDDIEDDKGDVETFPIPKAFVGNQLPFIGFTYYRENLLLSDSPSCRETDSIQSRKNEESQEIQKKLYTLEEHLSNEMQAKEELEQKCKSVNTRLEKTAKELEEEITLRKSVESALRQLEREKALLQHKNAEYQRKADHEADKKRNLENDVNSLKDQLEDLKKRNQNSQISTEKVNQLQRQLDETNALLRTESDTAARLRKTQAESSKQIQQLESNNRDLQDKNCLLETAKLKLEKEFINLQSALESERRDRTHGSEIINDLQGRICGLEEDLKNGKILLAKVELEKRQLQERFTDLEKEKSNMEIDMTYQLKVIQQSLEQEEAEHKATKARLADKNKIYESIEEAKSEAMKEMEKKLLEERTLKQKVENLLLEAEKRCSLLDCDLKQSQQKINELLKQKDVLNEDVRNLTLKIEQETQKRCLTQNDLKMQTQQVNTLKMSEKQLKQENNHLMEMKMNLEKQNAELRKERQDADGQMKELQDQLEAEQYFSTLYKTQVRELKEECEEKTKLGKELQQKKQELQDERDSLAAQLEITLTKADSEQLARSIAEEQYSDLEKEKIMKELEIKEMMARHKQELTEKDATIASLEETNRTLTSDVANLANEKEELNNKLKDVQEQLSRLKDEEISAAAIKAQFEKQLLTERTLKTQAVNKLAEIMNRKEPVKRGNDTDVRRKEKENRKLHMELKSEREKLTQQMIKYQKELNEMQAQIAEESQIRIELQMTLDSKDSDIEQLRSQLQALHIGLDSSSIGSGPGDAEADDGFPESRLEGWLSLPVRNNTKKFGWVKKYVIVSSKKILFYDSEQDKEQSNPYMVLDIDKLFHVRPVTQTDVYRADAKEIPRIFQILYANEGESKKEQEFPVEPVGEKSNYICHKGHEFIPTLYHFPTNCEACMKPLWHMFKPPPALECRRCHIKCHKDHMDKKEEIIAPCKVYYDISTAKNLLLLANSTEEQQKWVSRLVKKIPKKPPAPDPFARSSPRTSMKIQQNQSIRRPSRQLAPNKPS
LIM domain kinase 2, sequence (P53671 whole entry, the tested form may be a part): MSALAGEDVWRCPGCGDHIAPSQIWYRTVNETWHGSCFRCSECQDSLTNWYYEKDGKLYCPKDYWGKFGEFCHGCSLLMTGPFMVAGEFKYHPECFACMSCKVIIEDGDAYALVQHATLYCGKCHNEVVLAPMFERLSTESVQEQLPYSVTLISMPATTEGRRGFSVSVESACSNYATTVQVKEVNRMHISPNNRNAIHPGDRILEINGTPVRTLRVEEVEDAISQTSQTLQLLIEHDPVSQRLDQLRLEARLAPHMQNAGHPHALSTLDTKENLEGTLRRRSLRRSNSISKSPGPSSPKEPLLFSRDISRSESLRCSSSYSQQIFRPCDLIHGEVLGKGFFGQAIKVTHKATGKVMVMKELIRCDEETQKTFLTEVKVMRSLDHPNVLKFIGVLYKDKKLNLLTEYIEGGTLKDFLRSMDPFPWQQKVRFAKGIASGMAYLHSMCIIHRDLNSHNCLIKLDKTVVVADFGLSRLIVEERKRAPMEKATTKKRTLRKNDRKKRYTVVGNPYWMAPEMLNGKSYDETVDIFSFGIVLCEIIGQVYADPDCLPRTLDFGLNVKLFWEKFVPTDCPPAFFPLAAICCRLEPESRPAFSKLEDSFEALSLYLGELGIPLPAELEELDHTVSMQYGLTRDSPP
RAC-alpha serine/threonine-protein kinase, sequence (P31749 whole entry): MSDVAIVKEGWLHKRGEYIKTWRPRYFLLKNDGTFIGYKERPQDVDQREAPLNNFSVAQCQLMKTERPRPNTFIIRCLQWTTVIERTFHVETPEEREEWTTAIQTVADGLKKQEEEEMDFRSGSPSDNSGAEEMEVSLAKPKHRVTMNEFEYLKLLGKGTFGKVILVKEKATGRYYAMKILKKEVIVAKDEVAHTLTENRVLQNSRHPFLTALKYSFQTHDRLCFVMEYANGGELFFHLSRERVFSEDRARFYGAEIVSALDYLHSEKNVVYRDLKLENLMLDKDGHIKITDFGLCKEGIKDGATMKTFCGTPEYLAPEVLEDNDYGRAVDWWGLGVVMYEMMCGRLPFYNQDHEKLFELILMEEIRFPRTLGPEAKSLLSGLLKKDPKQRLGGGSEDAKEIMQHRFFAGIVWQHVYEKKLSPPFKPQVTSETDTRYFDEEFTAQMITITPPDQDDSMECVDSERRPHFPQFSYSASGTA
Description for MDR1: Efflux ratio of apparent permeability across basolateral to apical side to apical to basolateral side in MDCK-MDR1 cells at 10 uM measured after 1 hr by LC-MS/MS analysis

As for `COc1cccc([C@@H](C)NC(=O)N2CCN(c3ccnc(F)c3)C[C@H]2C)c1`, the Ratio in series [1] turned out to be 0.2. Besides, the concentration for half-maximal inhibition (IC50) was 0.006 µM in [2], 0.122 µM in series [3], 18.9 µM in series [7] and greater than 10 µM on Cytochrome P450 1A2. In addition, the solubility kinetic at 2 h in [4] was 170 µM (≈ 63.3 µg/mL). Further, in series [5], the Papp at 1 h, 10 µM was found to be 58.1 ×10⁻⁶ cm/s. Further, the CLint scaled at 1 µM in [6] was 103 mL/min/kg. The same compound showed a clearance in [8] of 28.3 mL/min/kg. Besides, in [9], the hepatic extraction ratio is 0.31. Further, the fAUC in series [10] amounted to 100 nM·kg·h/mg; in [11], 30 nM·kg·h/mg. The bioavailability in series [12] was 36%. The efflux ratio at 1 h, 10 µM in the series with MDR1 came to 2.8.

As for `COc1cccc([C@@H](C)NC(=O)c2ccc(-c3ccnc(F)c3)nc2)c1`, the half-maximal inhibitory concentration (IC50) in series [2] amounted to 0.026 µM; in series [3], 0.29 µM; in series [13], 9.26 µM; in [7], 0.32 µM; in series [15] it was 1.87 µM. In addition, the EC50 in series [14] turned out to be 3.21 µM.

For `COc1cccc([C@@H](C)NC(=O)N2CCN(c3ccncc3F)C[C@H]2C)c1`, the IC50 in series [2] is 0.003 µM; in [3], 0.008 µM; in [7], 2.25 µM; in [15], 0.014 µM; on LIM domain kinase 2, 0.025 µM. Besides, in [14], the EC50 was 0.028 µM. Moreover, the Activity with Mus musculus [16] was 61 mmHg; in the series with Mus musculus [17] it was 59.5 mmHg; in the series with Mus musculus [18], 56.4 mmHg; in the series on Mus musculus [22] it was 107 bpm. Also, the inhibition result with Mus musculus [19] is “Dde”; in the series with Mus musculus [20], “Tde”. Also, the T in the series on Mus musculus [21] stood at 2.5 °C.
